Tested on: patients treated with Methadone in the START trial
Assay: PK/PD Model 1 binning vs Methadone completion
Type: in vivo, human
Method: For the model analyses, models were developed that sort patients into one of three categories, Green (‘G’) Yellow (‘Y’) or Red (‘R’). Patients determined to be high risk for non-completion by the model are placed into the Red Bin. Patients at intermediate risk of non-completion are placed in the Yellow Bin, and for this study, Yellow Bin patients are treated the same as patients found to be at Low Risk of non-completion, or those who are placed in the Green Bin. Thus, the Green and Yellow bins are combined for analysis.
Three separate PK/PD Models were generated by combining the PK model with each of the three PD models separately as follows. For each PKPD model, the corresponding PD risk score was added to the raw PK score (bin). A total PD risk score that was negative, represents a reduction of the baseline PK score, while a total PD risk score that was positive represented an increase in the baseline PK score.
Samples from patients treated with Methadone in the START trial described in Example 1 above were used (N=352). […] Each model was tested as described below against Sample 1, Sample 2 and/or the Full Sample.
Pearson's product moment, Chi-square with Yates correction were calculated. Diagnostic tests, odds ratios, Pearson's product moment, Chi-square with Yates correction were calculated using MEDCALC and R version 3.3.1.
For PK/PD Model 1, final score was the sum of the PD 1 score and the PK score, where PK green=1, PK Yellow=2 and PK red=3. Bins were assigned according to Table 61.

[1] = PK/PD Model 1, Full Sample, Green bin
[2] = PK/PD Model 1, Full Sample, Red bin
[3] = PK/PD Model 1, Full Sample, Yellow bin
[4] = PK/PD Model 1, Sample 1, Green bin
[5] = PK/PD Model 1, Sample 1, Red bin
[6] = PK/PD Model 1, Sample 1, Yellow bin
[7] = PK/PD Model 1, Sample 2, Green bin
[8] = PK/PD Model 1, Sample 2, Red bin
[9] = PK/PD Model 1, Sample 2, Yellow bin

`CCC(=O)C(CC(C)N(C)C)(c1ccccc1)c1ccccc1` (stereo not drawn) [Methadone, methadone] was tested, and the Completers [1] was 262, the “Non Completers” value [1] was 23 and the Completers [2] was 2. The “Non Completers” value [2] was 6, the Completers [3] was 43 and the “Non Completers” value [3] was 16. For the same compound, the Completers [4] was 137, the “Non Completers” value [4] was 11 and the Completers [5] was 2. The “Non Completers” value [5] was 3, the Completers [6] was 17 and the “Non Completers” value [6] was 6. For the same compound, the Completers [7] was 134, the “Non Completers” value [7] was 10 and the Completers [8] was 0. For the same compound, the “Non Completers” value [8] was 2, the Completers [9] was 25 and the “Non Completers” value [9] was 5.
